What was measured:
[1] = Storage stability of inks (precipitation); format: physicochemical; design: key: ⊕: No precipitation; .diamond.: Slight precipitation; .O slashed.: Heavy precipitation; conditions: ink, 0° C, 30 days, hermetically sealed bottles
Method: (§1) 100 g of each ink were prepared by heating the necessary components from Table 3 (all amounts are indicated in grams) together with water at a temperature of 50° C. under stirring for one hour. The resulting solution was cooled down to 20° C., its pH value was adjusted to 7.5 and the solution was passed through a Millipore® filter of 0.5 μm pore diameter.
The inks were stored at a temperature of 0° C. for 30 days in hermetically sealed bottles. The quantity of precipitate eventually formed was evaluated in the following way: […]

[2] = Hydrolysis stability (pH change of 5% aqueous dye solution on storage); format: physicochemical; conditions: for pH change during storage: 5% by weight aqueous solution, initial pH 7.0, 60° C, 30 days; for Stability against hydrolysis compared with known dye (2) (in words): comparison with dye (2), Table 4
Method: An aqueous solution (5% by weight) was prepared and the pH value of this solution was adjusted to 7.0. The solution was filtered through a Millipore® filter of 0.5 μm pore diameter. The filtered solution was then heated to a temperature of 60° C. for 30 days, cooled down afterwards to a temperature of 20° C. and the pH value was measured again. The difference of the pH values before and after storage is an indicator of hydrolysis stability.

[3] = Dye solubility in deionised water (spectroscopic determination in filtered solution); format: physicochemical; conditions: for Solubility: deionised water, stirred 1 hour at 50° C, cooled to 20° C, filtered; for Solubility compared with previously known dye (in words): comparison with known dye, Table 4
Method: An excess of dye was dispersed in deionised water and this dispersion was stirred for 1 hour at 50° C. Then the mixture was cooled down to 20° C., centrifuged and filtered through a Millipore® filter of 0.5 μm pore diameter. Dye solubility was determined spectroscopically in the filtered solution.

[4] = Jetting stability of inks (IRIS ink jet printer nozzle); design: key: ⊕: Unchanged; .diamond.: Slightly changed; .O slashed.: Heavily changed; conditions: 100 hours continual jetting, exit angle and nozzle condition
Method: as §1
The inks were expelled continually during 100 hours from a nozzle of the IRIS ink jet printer. Afterwards the change of the exit angle of the ink stream and the condition of the nozzle were evaluated in the following way: […]

Structure (SMILES)	(C) Storage stability [1]	pH change during storage [2]	Solubility [3] [g per 100 ml]	(D) Jetting stability [4]	Stability against hydrolysis compared with known dye (2) (in words) [2]	Solubility compared with previously known dye (in words) [3]
COc1cc(N=Nc2cc(S(=O)(=O)O)c3cccc(S(=O)(=O)O)c3c2)c(C)cc1Nc1nc(SCCCS(=O)(=O)O)nc(SCCCS(=O)(=O)O)n1 [(2)]	⊕	-0.5	34	⊕		
CCOc1nc(Nc2cc(C)c(N=Nc3cc(S(=O)(=O)O)c4cccc(S(=O)(=O)O)c4c3)cc2OC)nc(SCCCS(=O)(=O)O)n1 [(100)]	⊕	0	32	⊕	much better stability against hydrolysis than the known dye (2)	considerably higher solubility than the previously known dye (2)
CCOc1nc(Nc2ccc(N=Nc3c(N)ccc4cc(S(=O)(=O)O)cc(O)c34)c(S(=O)(=O)O)c2)nc(SCCCS(=O)(=O)O)n1 [(113)]	⊕	-0.1	32	⊕	much better stability against hydrolysis than the known dye (2)	considerably higher solubility than the previously known dye (2)
COc1cc(N=Nc2cc(S(=O)(=O)O)c3cccc(S(=O)(=O)O)c3c2)c(C)cc1Nc1nc(SCCCS(=O)(=O)O)nc(N(C)CCO)n1 [(120)]	⊕	0	34	⊕	much better stability against hydrolysis than the known dye (2)	considerably higher solubility than the previously known dye (2)
CCN(c1ccccc1)c1nc(Nc2cc(S(=O)(=O)O)cc3cc(S(=O)(=O)O)c(N=Nc4ccccc4S(=O)(=O)O)c(O)c23)nc(SCCCS(=O)(=O)O)n1 [(117)]	⊕			⊕		
Nc1ccc2cc(S(=O)(=O)O)cc(O)c2c1N=Nc1ccc(Nc2nc(SCCCS(=O)(=O)O)nc(N(CCO)CCO)n2)cc1S(=O)(=O)O [(121)]	⊕	-0.1	38	⊕	much better stability against hydrolysis than the known dye (2)	considerably higher solubility than the previously known dye (2)
Nc1ccc2cc(S(=O)(=O)O)cc(O)c2c1N=Nc1ccc(Nc2nc(NCCO)nc(Nc3cccc(S(=O)(=O)O)c3)n2)cc1S(=O)(=O)O [(1)]	.diamond.	-0.2	12	.diamond.		
